Measured values as given in patent US20130224110A1, “USE OF ADENOSINE RECEPTOR SIGNALING TO MODULATE PERMEABILITY OF BLOOD-BRAIN BARRIER” (CORNELL UNIVERSITY, priority 2010, published 2013).

What was measured:
blood brain barrier = experiment: Entry of i.v. anti-β-amyloid antibody 6E10 into brain of transgenic AD (APP/PSEN) mice after NECA; type: in vivo; conditions: NECA i.v. 3 h before 6E10 i.v., brains collected after 90 min
Protocol: Wild type and transgenic (AD) mice were given 0.80 μg NECA (i.v.). After 3 h, 400 μg of antibody to β-amyloid (200 μl of 2 mg/ml; clone 6E10, Covance, Princeton, N.J.) was administered i.v. and the mice rested for 90 min. Mice were then anesthetized and perfused as described above and their brains were placed in OTC and flash-frozen for later sectioning. Sagital sections (6 μm) were fixed in acetone for 10 min, then washed in PBS. Sections were blocked with casein for 20 min then incubated with 1:50 dilution of goat anti-mouse IgCy5 (polyclonal, 1 mg/ml, Abcam, Cabridge, Mass.) for 20 min then washed 3 times in PBS. Sections were then dried and mounted with VectashieldHardset mounting media with DAPI (Vector Laboratories, Burlingame, Calif.). Images were obtained on a Zeiss Axio Imager M1 fluorescent microscope.
The most challenging therapeutic agents to get across the BBB are macromolecules such as antibodies, due to their enormous size (˜150 kDa). It was asked whether adenosine receptor modulation with NECA can facilitate the entry of antibodies into the CNS. To test this, a double [amyloid precursor protein (APP)/presenilin (PSEN)] transgenic mouse model of AD [strain B6.Cg-Tg(APPswe,PSEN1dE9)85Dbo/J] was used. […]

Z310 cells = experiment: Jurkat cell migration across Z310 choroid plexus cell transwell; type: cell-based, murine; conditions: 24 hours, n=1
Protocol: To test the hypothesis, Transwell membranes were seeded with Z310 cells and allowed to grow to confluencey. 2×10^6 Jurkat cells were added to the upper chamber with or with out NECA (n=1, general AR agonist), CCPA (n=1, A1 AR agonist), CGS 21860 (n=1, A2A AR agonist), or DMSO vehicle(n=1). After 24 hours, migrated cells in the lower chamber were counted. Values are relative to the number of cells that migrate through non-Z310 seeded transwells and the results are shown in FIG. 12.

[1] = system: CD4+ lymphocytes in the brain and spinal cord; experiment: CD4+ lymphocyte infiltration of brain and spinal cord after EAE induction (immunohistochemistry); type: in vivo; conditions: wild type mice, day 15 post-EAE induction, vs DMSO
Protocol: (§1) Anesthetized mice were perfused with PBS, and brains, spleens, and spinal cords were isolated and snap frozen in Tissue Tek-OCT medium. Five μm sections (brains in a sagittal orientation) were affixed to Supefrost/Plus slides (Fisher), fixed in acetone, and stored at −80° C. For immunostaining, slides were thawed and treated with 0.03% H2O2 in PBS to block endogenous peroxidase, blocked with Casein (Vector) in normal goat serum (Zymed), and then incubated with anti-CD45 (YW62.3), anti-CD4 (RM4-5), or anti-ICAM-1 (3E2). Slides were incubated with biotinylated goat anti-rat Ig (Jackson ImmunoResearch) and streptavidin-HRP (Zymed) and developed with an AEC (Red) substrate kit (Zymed) and a hematoxylin counterstain. […]
(§2) As CD73 catalyzes the breakdown of AMP to adenosine and ARs are expressed in the CNS (Tsutsui et al., “A1 Adenosine Receptor Upregulation and Activation Attenuates Neuroinflammation and Demyelination in a Model of Multiple Sclerosis,” J. Neurosci. 24:1521-1529 (2004)); Rosi et al., The Influence of Brain Inflammation Upon Neuronal Adenosine A2B Receptors,” J. Neurochem. 86:220-227 (2003), which are hereby incorporated by reference in their entirety), it was next determined if AR signaling is important during EAE progression. […] Since CD73 is highly expressed on the choroid plexus (FIG. 6C), it was next determined if ARs are also expressed on the choroid plexus. […]

ICAM-1 = ICAM-1 expression on the choroid plexus after EAE induction; type: in vivo; conditions: wild type mice after EAE induction, vs DMSO
Protocol: as §1, §2

**Q.** Which results are given for `CCNC(=O)[C@H]1O[C@@H](n2cnc3c(N)ncnc32)[C@H](O)[C@@H]1O` [NECA, 5′-N-ethylcarboxamido adenosine]?
**A.** binding of i.v. injected 6E10 antibody to Aβ plaques in brain (blood brain barrier): Binding of 6E10 antibody to Aβ plaques was observed throughout the brains; lymphocyte (Jurkat) migration across the CP (Z310 cells): induced migration

**Q.** How did the “frequency of CD4+ lymphocytes in the brain and spinal cord” value [1] turn out when `Nc1nc2c(cnn2CCc2ccccc2)c2nc(-c3ccco3)nn12` [SCH58261, 2-(2-Furanyl)-7-(2-phenylethyl)-7H-pyrazolo[4,3-e][1,2,4]triazolo[1,5-c]pyrimidin-5-amine] was run?
**A.** significantly lower frequency of CD4^+ lymphocytes in the brain and spinal cord

**Q.** And the “ICAM-1 up regulation on the choroid plexus” value (ICAM-1)?
**A.** prevented the up regulation of ICAM-1
